Reference: paper PMC6759758, “Cofactor Selectivity in Methylmalonyl Coenzyme A Mutase, a Model Cobamide-Dependent Enzyme” (mBio, 2019)

Experiments:
[1] = system: S. meliloti cobD::gus Gm^r metH::Tn5 ΔnrdJ pMS03-nrdABEc^+; experiment: MCM-dependent growth of S. meliloti on isoleucine/valine; assay type: cell-based, Sinorhizobium meliloti; details: for EC50 fold higher than CNCbl: MCM-dependent growth; for EC50: OD600 at 145 h, L-isoleucine and L-valine as sole carbon sources, average and SD for five or more biological replicates, read-out: EC50 (concentration required to achieve half of the maximal OD600)
Experimental: Because nrdJ is essential, the E. coli cobamide-independent ribonucleotide reductase encoded by nrdA and nrdB was expressed from the pMS03 plasmid ([143]). The strain was precultured in M9 medium ([144]) (modified concentration of MgSO4: 1 mM) containing 0.1% sucrose, 2 g/liter isoleucine, 2 g/liter valine, 1 g/liter methionine, and 20 μg/ml gentamicin, with shaking at 30°C. After 2 days, cells were washed and diluted to an OD600 of 0.02 into M9 medium containing 4 g/liter isoleucine, 4 g/liter valine, 1 g/liter methionine, 20 μg/ml gentamicin, and cobamides at various concentrations as indicated for each experiment, in 384-well plates. The plates were incubated at 30°C for 145 h in a BioTek Synergy 2 plate reader with linear shaking at 1,140 cpm. OD600 was measured in 1-h increments.

[2] = target: T1, SmMCM (methylmalonyl-CoA mutase from S. meliloti) (Rhizobium meliloti, UniProt O86028); experiment: biochemical; assay type: binding, Sinorhizobium meliloti; details: SmMCM 0.2 μM, pH 7.5, 30°C; average and standard deviation for three or more independent experiments; n. d. = binding too weak to determine Kd
T1 construct: made in house; host or cells: E. coli BL21(DE3)pLysS
T1 sequence (O86028 2-712): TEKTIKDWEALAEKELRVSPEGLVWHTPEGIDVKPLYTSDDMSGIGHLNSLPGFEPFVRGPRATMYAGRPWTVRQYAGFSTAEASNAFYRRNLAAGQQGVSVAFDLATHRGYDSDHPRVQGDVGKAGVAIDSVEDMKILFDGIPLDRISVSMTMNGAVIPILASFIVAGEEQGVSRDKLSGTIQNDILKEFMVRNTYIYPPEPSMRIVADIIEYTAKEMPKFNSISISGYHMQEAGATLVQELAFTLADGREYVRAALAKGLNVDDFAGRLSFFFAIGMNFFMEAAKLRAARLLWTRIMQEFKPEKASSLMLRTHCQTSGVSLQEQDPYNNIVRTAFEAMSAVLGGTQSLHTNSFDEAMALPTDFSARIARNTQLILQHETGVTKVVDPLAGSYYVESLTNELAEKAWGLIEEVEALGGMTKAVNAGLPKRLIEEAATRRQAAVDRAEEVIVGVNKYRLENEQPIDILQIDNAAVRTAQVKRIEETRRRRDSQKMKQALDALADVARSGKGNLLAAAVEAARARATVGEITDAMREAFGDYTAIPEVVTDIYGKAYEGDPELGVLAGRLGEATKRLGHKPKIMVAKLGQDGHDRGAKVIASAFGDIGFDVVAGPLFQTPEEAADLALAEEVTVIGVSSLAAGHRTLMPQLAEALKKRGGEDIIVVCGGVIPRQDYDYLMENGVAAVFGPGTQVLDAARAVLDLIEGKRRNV
Experimental: (§1) All steps involving cobamides were conducted in the dark. The plate was centrifuged for 1 min at 3,800 rpm to level the surface of the liquid in each well. The plate was then incubated for 40 min at 30°C to allow binding, with a brief shaking step after 30 min. […] Following incubation, fluorescence emission at 340 nm (5-nm slit width) was measured upon excitation at 282 nm (5-nm slit width) using a Tecan Infinite M1000 Pro plate reader. Fluorescence, normalized to the initial value, was plotted as a function of cobamide concentration, and fitted to the following equation ([134]): F/F0=1+ΔFmax/F0([E]+[L]+Kd)−([E]+[L]+Kd)^2−4[E][L]/2[E] where F is fluorescence, F0 is initial fluorescence, [E] is total enzyme concentration, [L] is total ligand concentration, and Kd is the binding dissociation constant.

EcMCM (E. coli MCM) = target: T2, EcMCM (E. coli MCM) (Escherichia coli, UniProt P27253); experiment: Fluorescence binding assay, EcMCM; details: read-out: Kd EcMCM; fitted curve, error = standard error of the curve fit
T2 construct: 6xHis (N); made in house; host or cells: E. coli BL21(DE3)
T2 sequence (P27253 whole entry): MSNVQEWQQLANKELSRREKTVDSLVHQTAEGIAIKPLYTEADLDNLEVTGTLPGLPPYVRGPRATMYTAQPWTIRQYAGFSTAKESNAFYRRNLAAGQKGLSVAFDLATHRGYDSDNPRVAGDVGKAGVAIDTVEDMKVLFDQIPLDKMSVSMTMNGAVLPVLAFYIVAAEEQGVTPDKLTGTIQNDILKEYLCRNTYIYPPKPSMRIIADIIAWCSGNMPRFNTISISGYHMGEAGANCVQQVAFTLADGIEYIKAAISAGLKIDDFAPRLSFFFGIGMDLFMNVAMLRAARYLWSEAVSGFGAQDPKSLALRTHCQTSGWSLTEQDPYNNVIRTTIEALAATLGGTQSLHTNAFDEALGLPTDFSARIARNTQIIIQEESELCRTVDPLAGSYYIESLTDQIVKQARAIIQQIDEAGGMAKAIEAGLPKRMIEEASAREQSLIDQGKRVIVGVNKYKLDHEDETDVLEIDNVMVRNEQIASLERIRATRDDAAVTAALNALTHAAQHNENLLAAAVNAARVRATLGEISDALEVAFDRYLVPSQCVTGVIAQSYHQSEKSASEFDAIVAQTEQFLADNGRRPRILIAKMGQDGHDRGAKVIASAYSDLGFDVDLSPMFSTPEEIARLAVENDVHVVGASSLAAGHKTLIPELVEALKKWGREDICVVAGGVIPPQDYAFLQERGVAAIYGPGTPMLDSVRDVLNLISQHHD
Experimental: as §1

VpMCM (V. parvula MCM) = VpMCM (V. parvula MCM) (Veillonella parvula, UniProt A0A124EFR6); experiment: Fluorescence binding assay, VpMCM; details: fitted curve, error = standard error of the curve fit; equimolar α and β subunits
VpMCM (V. parvula MCM), sequence (A0A124EFR6 entry or part of it): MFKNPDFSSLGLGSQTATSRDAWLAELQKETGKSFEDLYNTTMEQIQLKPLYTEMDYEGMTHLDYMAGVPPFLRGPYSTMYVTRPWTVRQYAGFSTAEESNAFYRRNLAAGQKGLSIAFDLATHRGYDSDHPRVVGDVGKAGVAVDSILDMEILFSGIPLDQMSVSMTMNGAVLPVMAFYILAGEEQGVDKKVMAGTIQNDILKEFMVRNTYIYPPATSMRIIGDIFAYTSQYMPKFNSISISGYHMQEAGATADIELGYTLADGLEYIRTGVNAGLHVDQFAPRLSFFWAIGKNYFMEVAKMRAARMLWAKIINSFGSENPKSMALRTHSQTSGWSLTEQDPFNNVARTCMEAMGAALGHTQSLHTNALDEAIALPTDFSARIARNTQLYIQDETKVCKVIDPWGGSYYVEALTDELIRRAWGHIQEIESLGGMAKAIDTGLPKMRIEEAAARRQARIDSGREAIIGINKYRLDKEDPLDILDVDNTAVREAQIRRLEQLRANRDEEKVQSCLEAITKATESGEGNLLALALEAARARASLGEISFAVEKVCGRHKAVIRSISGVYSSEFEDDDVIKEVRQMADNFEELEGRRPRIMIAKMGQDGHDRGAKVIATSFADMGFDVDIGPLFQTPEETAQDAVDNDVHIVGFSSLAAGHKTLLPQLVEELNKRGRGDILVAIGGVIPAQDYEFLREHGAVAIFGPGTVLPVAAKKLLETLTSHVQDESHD
Experimental: The α subunit of VpMCM (encoded by Vpar_RS09005) was expressed with an N-terminal 6×His tag from the pET-Duet expression vector in E. coli BL21(DE3). Protein expression was induced with 520 μM IPTG for 6 h at 30°C. The protein was batch purified by nickel affinity and subsequently purified by FPLC using a HiTrapQ column with an NaCl gradient from 50 to 500 mM in […], pH 8.0, 10% glycerol. The β subunit of VpMCM (encoded by Vpar_RS09000) was expressed separately with an N-terminal 6×His tag from the pET-Duet expression vector in E. coli BL21(DE3). […] Purified protein was dialyzed into 25 mM Tris-HCl, pH 8.0, 300 mM NaCl, 10% glycerol, and 1 mM β-mercaptoethanol. Concentration of pure α and β subunits (Fig. S7) was determined by absorbance at 280 nm (A280) using the theoretically calculated extinction coefficients 75,290 M^−1 cm^−1 and 74,260 M^−1 cm^−1, respectively ([125]). Equimolar amounts of α and β subunits were combined during the setup of fluorescence binding assays.
as §1

[3] = target: T3, SmMCM (Sinorhizobium meliloti MCM) (Rhizobium meliloti, UniProt O86028); experiment: Thiokinase-coupled spectrophotometric MCM activity assay; assay type: biochemical; details: SmMCM 50 nM reconstituted with 2 μM cobamide; (R)-methylmalonyl-CoA to succinyl-CoA, steady state, 30°C
T3 construct: made in house; host or cells: E. coli BL21(DE3)pLysS
T3 sequence (O86028 2-712): T1 sequence (O86028 2-712)
Experimental: Final concentrations of reagents in the assays were as follows: Tris-phosphate buffer (pH 7.5), 100 mM Tris, 50 mM phosphate; dithionitrobenzoate (DTNB), 400 μM; ADP, 1 mM; MgCl2, 10 mM; (R)-methylmalonyl-CoA, 0 to 4 mM; thiokinase, 5 μM; MCM, 50 nM; and cobamides, 2 μM.
Three separate mixes were prepared, all in 1× Tris-phosphate buffer: an assay mix containing DTNB, ADP, and MgCl2; a substrate mix containing (R)-methylmalonyl-CoA; and an enzyme mix containing thiokinase, MCM, and cobamides. All steps involving cobamides were conducted in the dark. The assay and enzyme mixes were prepared as a master mix and aliquoted into 96-well plates; substrate mixes were prepared in individual wells, in triplicate. All components were incubated at 30°C for 40 min to equilibrate temperature and allow prebinding of cobamides and MCM. After incubation, one replicate at a time, the substrate mix was added to the assay mix, followed by the enzyme mix. Absorbance at 412 nm (A412) was recorded immediately after addition of enzyme and for 1 to 3 min, every 3 s, on a BioTek Synergy 2 plate reader. The increase in A412 in reaction mixtures lacking substrate was subtracted from all readings, to account for reactivity of DTNB with thiols on protein surfaces.

MCM = system: MCM; parameters: method as in PMID 14235521; details: cited from earlier work

| Compound | EC50 [1] [nM] | Kd [2] [nM] | also measured |
| --- | --- | --- | --- |
| 2-Methyladeninylcobamide [CN[2-MeAde]Cba] | 24 ± 9 |  | EC50 fold higher than CNCbl [1]: 5 fold |
| 5-Hydroxybenzimidazolylcobamide [CN[5-OHBza]Cba] | 400 ± 100 |  |  |
| C/C1=C2/[N-][C@H]([C@H](CC(N)=O)[C@@]2(C)CCC(=O)NC[C@@H](C)OP(=O)([O-])O[C@H]2[C@@H](O)[C@@H](n3cnc4nc(C)nc(N)c43)O[C@@H]2CO)[C@]2(C)N=C(/C(C)=C3N=C(/C=C4N=C1[C@@H](CCC(N)=O)C\4(C)C)[C@@H](CCC(N)=O)[C@]\3(C)CC(N)=O)[C@@H](CCC(N)=O)[C@]2(C)CC(N)=O.[CH2-][C@H]1O[C@@H](n2cnc3c(N)ncnc32)[C@H](O)[C@@H]1O.[Co+3] [Ado[2-MeAde]Cba, 2-Methyladeninylcobamide] |  | 1700 ± 700 | Kd (EcMCM (E. coli MCM)): 350 ± 40 nM; Kd (VpMCM (V. parvula MCM)): 1500 ± 200 nM |
| C/C1=C2/[N-][C@H]([C@H](CC(N)=O)[C@@]2(C)CCC(=O)NC[C@@H](C)OP(=O)([O-])O[C@H]2[C@@H](O)[C@@H](n3cnc4cc(C)ccc43)O[C@@H]2CO)[C@]2(C)N=C(/C(C)=C3N=C(/C=C4N=C1[C@@H](CCC(N)=O)C\4(C)C)[C@@H](CCC(N)=O)[C@]\3(C)CC(N)=O)[C@@H](CCC(N)=O)[C@]2(C)CC(N)=O.[CH2-][C@H]1O[C@@H](n2cnc3c(N)ncnc32)[C@H](O)[C@@H]1O.[Co+3] [Ado[5-MeBza]Cba, 5-Methylbenzimidazolylcobamide] |  | 100 ± 40 | kcat [3]: 12.8 ± 0.5 s⁻¹ |
| C/C1=C2/[N-][C@H]([C@H](CC(N)=O)[C@@]2(C)CCC(=O)NC[C@@H](C)OP(=O)([O-])O[C@H]2[C@@H](O)[C@@H](n3cnc4cccc(N)c43)O[C@@H]2CO)[C@]2(C)N=C(/C(C)=C3N=C(/C=C4N=C1[C@@H](CCC(N)=O)C\4(C)C)[C@@H](CCC(N)=O)[C@]\3(C)CC(N)=O)[C@@H](CCC(N)=O)[C@]2(C)CC(N)=O.[CH2-][C@H]1O[C@@H](n2cnc3c(N)ncnc32)[C@H](O)[C@@H]1O.[Co+3] [Ado[7-AmBza]Cba, 7-Aminobenzimidazolylcobamide] |  | 700 ± 100 |  |
| C/C1=C2/[N-][C@H]([C@H](CC(N)=O)[C@@]2(C)CCC(=O)NC[C@@H](C)OP(=O)([O-])O[C@H]2[C@@H](O)[C@@H](n3cnc4cccc(C)c43)O[C@@H]2CO)[C@]2(C)N=C(/C(C)=C3N=C(/C=C4N=C1[C@@H](CCC(N)=O)C\4(C)C)[C@@H](CCC(N)=O)[C@]\3(C)CC(N)=O)[C@@H](CCC(N)=O)[C@]2(C)CC(N)=O.[CH2-][C@H]1O[C@@H](n2cnc3c(N)ncnc32)[C@H](O)[C@@H]1O.[Co+3] [Ado[7-MeBza]Cba, 7-Methylbenzimidazolylcobamide] |  | 100 ± 20 |  |
| C/C1=C2/[N-][C@H]([C@H](CC(N)=O)[C@@]2(C)CCC(=O)NC[C@@H](C)OP(=O)([O-])O[C@H]2[C@@H](O)[C@@H](n3cnc4ccccc43)O[C@@H]2CO)[C@]2(C)N=C(/C(C)=C3N=C(/C=C4N=C1[C@@H](CCC(N)=O)C\4(C)C)[C@@H](CCC(N)=O)[C@]\3(C)CC(N)=O)[C@@H](CCC(N)=O)[C@]2(C)CC(N)=O.[CH2-][C@H]1O[C@@H](n2cnc3c(N)ncnc32)[C@H](O)[C@@H]1O.[Co+3] [Ado[Bza]Cba, Benzimidazolylcobamide] |  | 400 ± 200 | Kd (EcMCM (E. coli MCM)): 1800 ± 200 nM; Kd (VpMCM (V. parvula MCM)): 1400 ± 300 nM; MCM activity in S. meliloti bacteroids (MCM): intermediate |
| C/C1=C2/[N-][C@H]([C@H](CC(N)=O)[C@@]2(C)CCC(=O)NC[C@@H](C)OP(=O)([O-])O[C@H]2[C@@H](O)[C@@H](Oc3ccc(C)cc3)O[C@@H]2CO)[C@]2(C)N=C(/C(C)=C3N=C(/C=C4N=C1[C@@H](CCC(N)=O)C\4(C)C)[C@@H](CCC(N)=O)[C@]\3(C)CC(N)=O)[C@@H](CCC(N)=O)[C@]2(C)CC(N)=O.[CH2-][C@H]1O[C@@H](n2cnc3c(N)ncnc32)[C@H](O)[C@@H]1O.[Co+3] [Ado[Cre]Cba, para-Cresolylcobamide] |  | 50 ± 10 | Kd (EcMCM (E. coli MCM)): 620 ± 90 nM; Kd (VpMCM (V. parvula MCM)): 1300 ± 100 nM; kcat [3]: 15 ± 1 s⁻¹ |
| C/C1=C2/[N-][C@H]([C@H](CC(N)=O)[C@@]2(C)CCC(=O)NC[C@@H](C)OP(=O)([O-])O[C@H]2[C@@H](O)[C@@H](Oc3ccccc3)O[C@@H]2CO)[C@]2(C)N=C(/C(C)=C3N=C(/C=C4N=C1[C@@H](CCC(N)=O)C\4(C)C)[C@@H](CCC(N)=O)[C@]\3(C)CC(N)=O)[C@@H](CCC(N)=O)[C@]2(C)CC(N)=O.[CH2-][C@H]1O[C@@H](n2cnc3c(N)ncnc32)[C@H](O)[C@@H]1O.[Co+3] [Ado[Phe]Cba, Phenolylcobamide] |  | 200 ± 30 | Kd (EcMCM (E. coli MCM)): 1300 ± 200 nM; Kd (VpMCM (V. parvula MCM)): 5000 ± 1000 nM; kcat [3]: 8.3 ± 0.4 s⁻¹ |
| C#N.C/C1=C2/N[C@H]([C@H](CC(N)=O)[C@@]2(C)CCC(=O)NC[C@@H](C)OP(=O)(O)O[C@H]2[C@@H](O)[C@@H](n3cnc4ncnc(N)c43)O[C@@H]2CO)[C@]2(C)N=C(/C(C)=C3N=C(/C=C4N=C1[C@@H](CCC(N)=O)C\4(C)C)[C@@H](CCC(N)=O)[C@]\3(C)CC(N)=O)[C@@H](CCC(N)=O)[C@]2(C)CC(N)=O.[Co] [CN[Ade]Cba, Adeninylcobamide] | 350 ± 90 |  |  |
| Benzimidazolylcobamide [CN[Bza]Cba] | 27 ± 7 |  | EC50 fold higher than CNCbl [1]: 5 fold |
| Phenolylcobamide [CN[Phe]Cba] | 400 ± 100 |  |  |
| Purinylcobamide [CN[Pur]Cba] | 600 ± 200 |  |  |
| cyanocobalamin [CNCbl, reference compound] | 5 ± 1 |  |  |
| para-Cresolylcobamide [CN[Cre]Cba] | 700 ± 100 |  |  |
